Read-outs that look alike come from different tables or passages of the source.
Experiments:
Format in all cases: cell-based
PATU‐T [1] = assay: SRB chemosensitivity assay, PATU‐T cells; details: read-out: IC50 PATU‐T
Procedure: Three lines of immortalized PDAC cells were selected as representative phenotypes: mesenchymal (PATU‐T), quasimesenchymal (PANC‐1), and an epithelial clone of SUIT 2 cells (SUIT 2.28). Cells were cultured in noncoated T‐75 and T‐25 flasks under adherent conditions, using 1× DMEM (Gibco, 41,966,029) for PATU‐T and RPMI (Gibco, 21,875,034) for SUIT 2.28 and PANC‐1, both supplemented with 10% NBCS and 1% P/S. Additional employed models were the PDAC3 cells, a primary cell culture, the PSCs, which were immortalized healthy pancreatic cells, and the PATU‐T‐GR, which was a gemcitabine resistant model of PATU‐T. PDAC3 and PSCs were cultivated using complete RPMI medium, while PATU‐T‐GR required complete DMEM medium. For seeding, cells were detached with Trypsin‐EDTA (0.05%) (GibcoTM, 25,300–096) and were consequently counted using the Automated Cell Counter (Luna‐II, Westburg). Cells were then plated on 96‐ or 6‐well plates depending on the planned experiment.
The Sulforhodamine B (SRB) chemosensitivity assay was used to measure cytotoxicity and cell proliferation post drug treatment. At day 0, 3–6 × 10^3 cells were seeded in a 96‐well plate, depending on the cell line. At day 1, cells were attached and ready to be treated. For the calculation of the IC50, drug dilutions for the compounds 1b, 1c, 1d, 1e, 1g, 1hr, 1i, 1j, and LDC4297 (MedChemExpress, HY‐12,653) were prepared in dilution trays and eight different concentrations were included. These were added in triplicates to the cells, which were then incubated for […] at 37 °C in 5% CO2. During day 1, the control plate was fixed with 50% Trichloroacetic acid (TCA), as intended to be the baseline plate used for the normalization of the data. 72 h post‐treatment, the cells were fixed with TCA, and placed at 4 °C for about 2 h. The plates were then washed with distillated water and left to dry under the hood with ventilation. Subsequently, plates were stained with 0.4% SRB for 15 min and washed with 1% acetic acid to remove excess stain. Once dried again, the protein‐bound SRB was dissolved in 10 mM TRIS, and the plates were placed on a shaker for 10 min per plate. Lastly, the absorbance was measured at 492 nm with a spectrophotometer (Synergy HT, BioTek). The absorbance data obtained were normalized to the day 1 control, and the percentage of cell growth in relation to the control was calculated using the following formula. (1) %Cell growth=Mean OD treatment−Mean OD day0/Mean OD control−Mean OD day0×100
The percentage of proliferation and their respective standard deviations were used to perform statistical analysis in GraphPad Prism software v 10 (GraphPad Software, San Diego, CA). Data were normalized to the day 0 control and to their own untreated 72 h control. These were transformed into logarithmic data, and log(inhibitor) versus response analysis was performed for obtaining the IC50 values per cell lines. Each experiment was conducted in triplicates.

PATU‐T [2] = assay: Annexin V apoptosis assay, PATU‐T; details: 1 × IC50
Procedure: (§1) In order to investigate the apoptotic properties of the compounds 1b and 1g, the Annexin V apoptosis assay was performed. Annexins are calcium‐dependent phospholipid binding proteins, which are able to bind to phosphatidylserine (PS). The externalization of PS residues on the outer membrane of apoptotic cells can be detected by Annexin V.
(§2) For this assay, cells were seeded in a 96‐well plate at a concentration of 13.5 × 10^3 and 4.5 × 10^3 /well respectively for the 24 and 72 h experiments. The next day cells were treated with compounds 1b and 1g at 1 × IC50 and 4 × IC50 concentrations. The apoptosis assay was performed 24 and 72 h post‐treatment following the BD Pharmingen FITC Annexin V Apoptosis Detection Kit I (BD Biosciences, 556,547). The supernatant was aspirated, and cells were washed with phosphate‐buffered saline (PBS). Cells were consequently treated with binding buffer BBA + Annexin V (1:100) and were incubated in the dark at RT for 10 min. The supernatant was removed, and the cells were washed with BBA (1:10). Cells were then incubated with BBA + PI (1:100) and were immediately read with the spectrophotometer at ex. 485/ em. 535. Two different programs were used to read the Annexin V and the PI absorbance. Lastly, 100 µL of PBS were added to each well before being fixed with TCA. This was followed by the SRB assay to standardize fluorescence data according to cell count. Data were exported into GraphPad Prism 10 for statistical analysis.

SUIT 2.28 = assay: Annexin V apoptosis assay, SUIT 2.28; details: 1× and 4 × IC50
Procedure: as §1, §2

SMILES	IC50 (PATU‐T [1]; SRB, 72 h of treatment, average ± SEM, triplicate) [nM]	apoptotic index (PATU‐T [2]; 24 h)	apoptotic index (PATU‐T [2]; 72 h)	apoptotic index (SUIT 2.28; SUIT 2.28, 24 h)	apoptotic index (SUIT 2.28; SUIT 2.28, 72 h)	IC50 (PATU‐T [1]; 72 h) [nM]
Nc1ncnc2cc(-c3c[nH]c4ccc(Br)cc34)nn12 [Compound 1b, 7‐(5‐Bromo‐1H‐indol‐3‐yl)pyrazolo[1,5‐a][1,3,5]triazin‐4‐amine]	1400 ± 200	did not show a significant apoptotic index	significant increase in apoptotic index	below 1.5	higher apoptotic index	
Cn1cc(-c2cc3ncnc(N)n3n2)c2cc(Br)ccc21 [Compound 1g, 7‐(5‐Bromo‐1‐methyl‐1H‐indol‐3‐yl)pyrazolo[1,5‐a][1,3,5]triazin‐4‐amine]		significantly increased apoptosis	not significant compared to control	below 1.5	higher apoptotic index	1300 ± 100

Reference: PMC12503906, “Novel Pyrazolo [1,5‐a]−1,3,5‐Triazine Derivatives as CDK7 Inhibitors: Synthesis and Biological Insights in Pancreatic Ductal Adenocarcinoma Models” (Chemmedchem, 2025)
